The target of this assay is T1, human MRGPRX2 (Homo sapiens, UniProt Q96LB1).
T1 construct: expressed in transfected cells; host or cells: CHO cells, stably transfected (G418 and Hygromycin B selection)
T1 sequence (Q96LB1 1-330): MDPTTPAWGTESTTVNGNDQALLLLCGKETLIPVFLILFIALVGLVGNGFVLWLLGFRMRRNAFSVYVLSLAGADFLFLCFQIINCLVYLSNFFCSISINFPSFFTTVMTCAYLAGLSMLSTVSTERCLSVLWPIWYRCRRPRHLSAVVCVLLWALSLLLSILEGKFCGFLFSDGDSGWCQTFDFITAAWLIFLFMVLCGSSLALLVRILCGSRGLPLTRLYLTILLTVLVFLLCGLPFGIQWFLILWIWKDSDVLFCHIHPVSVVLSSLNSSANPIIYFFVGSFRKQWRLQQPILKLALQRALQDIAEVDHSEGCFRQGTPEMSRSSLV
The assay can be described thus: MRGPRX2 activity: IP-One Gq HTRF assay in CHO cells, antagonism versus 0.3 uM Cortistatin-14. It is filed as cell-based. The following applies: versus 0.3 uM Cortistatin-14 agonist, CHO cells expressing human MRGPRX2, read-out: MRGPRX2 Antagonist Activity. In a few lines:
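CHO cells stably expressing human MRGPRX2 were treated with a 10-point compound curve (30 uM top, 1:3) plus 0.3 μM Cortistatin-14 in LiCl-containing Tris buffer, pH 8. Incubation was 1 h at 37 °C then 1 h at room temperature; IP-1 was detected by HTRF and IC50 came from the HTRF ratio.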
For orientation: TR-FRET usually uses a lanthanide donor and a delayed reading to cut background.

Regarding `CC(c1ccc(F)cc1)c1c(F)ccc2c1NC(NCc1ncccc1F)=NS2(=O)=O` (centres unmarked) [Compound 8-2, 6-fluoro-5-(1-(4-fluorophenyl)ethyl)-3-(((3-fluoropyridin-2-yl)methyl)amino)-4H-benzo[e][1,2,4]thiadiazine 1,1-dioxide], the IC50 was below 100 nM.
To `Cc1c(F)cccc1CNC1=NS(=O)(=O)c2ccc(F)c(C(C)c3cccc(Cl)c3Cl)c2N1` (centres unmarked) [Compound 8-3, 5-(1-(2,3-dichlorophenyl)ethyl)-6-fluoro-3-((3-fluoro-2-methylbenzyl)amino)-4H-benzo[e][1,2,4]thiadiazine 1,1-dioxide] belongs below 100 nM; to `CC(c1ccccc1F)c1c(F)ccc2c1NC(NCc1cccc(Cl)c1F)=NS2(=O)=O` (centres unmarked) [Compound 9-2, 3-((3-chloro-2-fluorobenzyl)amino)-6-fluoro-5-(1-(2-fluorophenyl)ethyl)-4H-benzo[e][1,2,4]thiadiazine 1,1-dioxide], below 100 nM; to `CC(c1ccccc1F)c1c(F)ccc2c1NC(NCc1cc(F)ccc1F)=NS2(=O)=O` (centres unmarked) [Compound 9-3, 3-((2,5-difluorobenzyl)amino)-6-fluoro-5-(1-(2-fluorophenyl)ethyl)-4H-benzo[e][1,2,4]thiadiazine 1,1-dioxide], below 100 nM.
Consider `CC(c1ccccc1F)c1c(F)ccc2c1NC(NCc1cccc(F)c1)=NS2(=O)=O` (centres unmarked) [Compound 9-4, 6-fluoro-3-((3-fluorobenzyl)amino)-5-(1-(2-fluorophenyl)ethyl)-4H-benzo[e][1,2,4]thiadiazine 1,1-dioxide], for which the IC50 is below 100 nM.
As to `CC(c1ccccc1F)c1c(F)ccc2c1NC(NCc1cccc(F)n1)=NS2(=O)=O` (centres unmarked) [Compound 9-5, 6-fluoro-5-(1-(2-fluorophenyl)ethyl)-3-(((6-fluoropyridin-2-yl)methyl)amino)-4H-benzo[e][1,2,4]thiadiazine 1,1-dioxide], the IC50 was below 100 nM.
As to `Cc1c(F)cccc1CNC1=NS(=O)(=O)c2ccc(F)c(C(C)c3ccccc3F)c2N1` (centres unmarked) [Compound 9-6, 6-fluoro-3-((3-fluoro-2-methylbenzyl)amino)-5-(1-(2-fluorophenyl)ethyl)-4H-benzo[e][1,2,4]thiadiazine 1,1-dioxide], the IC50 is below 100 nM.
Regarding `CC(c1ccccc1F)c1c(F)c(F)cc2c1NC(NCc1ncccc1F)=NS2(=O)=O` (centres unmarked) [Compound 9-7, 6,7-difluoro-5-(1-(2-fluorophenyl)ethyl)-3-(((3-fluoropyridin-2-yl)methyl)amino)-4H-benzo[e][1,2,4]thiadiazine 1,1-dioxide], the IC50 was below 100 nM.
With `O=S1(=O)N=C(NCc2ncccc2F)Nc2c1ccc(F)c2CCc1ccccc1Cl` [Compound 11-1, 5-(2-chlorophenethyl)-6-fluoro-3-(((3-fluoropyridin-2-yl)methyl)amino)-4H-benzo[e][1,2,4]thiadiazine 1,1-dioxide], the IC50 was in the range of 100 to 500 nM.
As to `O=S1(=O)N=C(NCc2ccccc2Cl)Nc2c(Cc3ccccc3Cl)cccc21` [Compound 12-1, 5-(2-chlorobenzyl)-3-((2-chlorobenzyl)amino)-4H-benzo[e][1,2,4]thiadiazine 1,1-dioxide], the IC50 was below 100 nM.
Turning to `O=S1(=O)N=C(NCc2ncccc2F)Nc2c(Cc3ccccc3Cl)cccc21` [Compound 12-2, 5-(2-chlorobenzyl)-3-(((3-fluoropyridin-2-yl)methyl)amino)-4H-benzo[e][1,2,4]thiadiazine 1,1-dioxide], the IC50 is below 100 nM.
To `O=S1(=O)N=C(NCc2ncccc2Cl)Nc2c(Cc3ccccc3Cl)cccc21` [Compound 12-3, 5-(2-chlorobenzyl)-3-(((3-chloropyridin-2-yl)methyl)amino)-4H-benzo[e][1,2,4]thiadiazine 1,1-dioxide] belongs below 100 nM; to `O=S1(=O)N=C(NCc2ccc(F)cc2Cl)Nc2c(Cc3ccccc3Cl)cccc21` [Compound 12-4, 3-((2-chloro-4-fluorobenzyl)amino)-5-(2-chlorobenzyl)-4H-benzo[e][1,2,4]thiadiazine 1,1-dioxide], below 100 nM.
Turning to `Cc1ccc(CNC2=NS(=O)(=O)c3cccc(Cc4ccccc4Cl)c3N2)c(Cl)c1` [Compound 12-5, 3-((2-chloro-4-methylbenzyl)amino)-5-(2-chlorobenzyl)-4H-benzo[e][1,2,4]thiadiazine 1,1-dioxide], the IC50 was below 100 nM.
For the compound `Cc1ccc(CNC2=NS(=O)(=O)c3cccc(Cc4ccccc4Cl)c3N2)c(F)c1` [Compound 12-6, 5-(2-chlorobenzyl)-3-((2-fluoro-4-methylbenzyl)amino)-4H-benzo[e][1,2,4]thiadiazine 1,1-dioxide], the IC50 is below 100 nM.
For the compound `Cc1cc(F)ccc1CNC1=NS(=O)(=O)c2cccc(Cc3ccccc3Cl)c2N1` [Compound 12-7, 5-(2-chlorobenzyl)-3-((4-fluoro-2-methylbenzyl)amino)-4H-benzo[e][1,2,4]thiadiazine 1,1-dioxide], the IC50 was below 100 nM.
Regarding `Cc1ccc(CNC2=NS(=O)(=O)c3cccc(Cc4ccccc4Cl)c3N2)c(C)c1` [Compound 12-8, 5-(2-chlorobenzyl)-3-((2,4-dimethylbenzyl)amino)-4H-benzo[e][1,2,4]thiadiazine 1,1-dioxide], the IC50 was below 100 nM.
Take `COc1cc(F)ccc1CNC1=NS(=O)(=O)c2cccc(Cc3ccccc3Cl)c2N1` [Compound 12-9, 5-(2-chlorobenzyl)-3-((4-fluoro-2-methoxybenzyl)amino)-4H-benzo[e][1,2,4]thiadiazine 1,1-dioxide]: the IC50 was below 100 nM.
`O=S1(=O)N=C(NCc2ncc(F)cc2F)Nc2c(Cc3ccccc3Cl)cccc21` [Compound 12-10, 5-(2-chlorobenzyl)-3-(((3,5-difluoropyridin-2-yl)methyl)amino)-4H-benzo[e][1,2,4]thiadiazine 1,1-dioxide]: the IC50 was below 100 nM.
Consider `O=S1(=O)N=C(NCc2ccc(F)cc2F)Nc2c(Cc3ccccc3Cl)cccc21` [Compound 12-11, 5-(2-chlorobenzyl)-3-((2,4-difluorobenzyl)amino)-4H-benzo[e][1,2,4]thiadiazine 1,1-dioxide], for which the IC50 is below 100 nM.
Regarding `O=S1(=O)N=C(NCc2ccc(Cl)c(Cl)c2)Nc2c(Cc3ccccc3Cl)cccc21` [Compound 12-12, 5-(2-chlorobenzyl)-3-((3,4-dichlorobenzyl)amino)-4H-benzo[e][1,2,4]thiadiazine 1,1-dioxide], the IC50 was below 100 nM.
For `Cc1ccc(CNC2=NS(=O)(=O)c3cccc(Cc4ccccc4Cl)c3N2)cc1C` [Compound 12-13, 5-(2-chlorobenzyl)-3-((3,4-dimethylbenzyl)amino)-4H-benzo[e][1,2,4]thiadiazine 1,1-dioxide], the IC50 was below 100 nM.
In the case of `O=S1(=O)N=C(NCc2ccc(F)c(F)c2)Nc2c(Cc3ccccc3Cl)cccc21` [Compound 12-14, 5-(2-chlorobenzyl)-3-((3,4-difluorobenzyl)amino)-4H-benzo[e][1,2,4]thiadiazine 1,1-dioxide], the IC50 was below 100 nM.
Turning to `COc1cc(C)ccc1CNC1=NS(=O)(=O)c2cccc(Cc3ccccc3Cl)c2N1` [Compound 12-15, 5-(2-chlorobenzyl)-3-((2-methoxy-4-methylbenzyl)amino)-4H-benzo[e][1,2,4]thiadiazine 1,1-dioxide], the IC50 was in the range of 100 to 500 nM.
As to `O=S1(=O)N=C(NCc2cccc(Cl)c2)Nc2c(Cc3ccccc3Cl)cccc21` [Compound 12-16, 5-(2-chlorobenzyl)-3-((3-chlorobenzyl)amino)-4H-benzo[e][1,2,4]thiadiazine 1,1-dioxide], the IC50 is below 100 nM.
For the compound `O=S1(=O)N=C(NCc2ccncc2Cl)Nc2c(Cc3ccccc3Cl)cccc21` [Compound 12-17, 5-(2-chlorobenzyl)-3-(((3-chloropyridin-4-yl)methyl)amino)-4H-benzo[e][1,2,4]thiadiazine 1,1-dioxide], the IC50 was below 100 nM.
Regarding `O=S1(=O)N=C(NCc2cccnc2Cl)Nc2c(Cc3ccccc3Cl)cccc21` [Compound 12-18, 5-(2-chlorobenzyl)-3-(((2-chloropyridin-3-yl)methyl)amino)-4H-benzo[e][1,2,4]thiadiazine 1,1-dioxide], the IC50 is below 100 nM.
With `Cc1ccccc1CNC1=NS(=O)(=O)c2cccc(Cc3ccccc3Cl)c2N1` [Compound 12-19, 5-(2-chlorobenzyl)-3-((2-methylbenzyl)amino)-4H-benzo[e][1,2,4]thiadiazine 1,1-dioxide], the IC50 is below 100 nM.
For `Cc1cccc(CNC2=NS(=O)(=O)c3cccc(Cc4ccccc4Cl)c3N2)c1` [Compound 12-20, 5-(2-chlorobenzyl)-3-((3-methylbenzyl)amino)-4H-benzo[e][1,2,4]thiadiazine 1,1-dioxide], the IC50 was below 100 nM.
To `Cc1cccnc1CNC1=NS(=O)(=O)c2cccc(Cc3ccccc3Cl)c2N1` [Compound 12-21, 5-(2-chlorobenzyl)-3-(((3-methylpyridin-2-yl)methyl)amino)-4H-benzo[e][1,2,4]thiadiazine 1,1-dioxide] belongs below 100 nM.
As to `O=S1(=O)N=C(NCc2cccc(F)c2)Nc2c(Cc3ccccc3Cl)cccc21` [Compound 12-22, 5-(2-chlorobenzyl)-3-((3-fluorobenzyl)amino)-4H-benzo[e][1,2,4]thiadiazine 1,1-dioxide], the IC50 is below 100 nM.
`O=S1(=O)N=C(NCc2ccncc2F)Nc2c(Cc3ccccc3Cl)cccc21` [Compound 12-23, 5-(2-chlorobenzyl)-3-(((3-fluoropyridin-4-yl)methyl)amino)-4H-benzo[e][1,2,4]thiadiazine 1,1-dioxide]: the IC50 was below 100 nM.
